Data published in US20250177366A1, “COMPOSITIONS AND METHODS FOR ALLEVIATING PAIN AND REDUCING ADVERSIVENESS OF STIMULI” (UNIVERSITY OF WASHINGTON, priority 2021, published 2025).

What was measured:
larval zebrafish = assay: Thermal preference assay (28.5° C. vs 37.5° C.), non-sensitized; type: in vivo, Zebrafish (Danio rerio)
Protocol: Thermal preference assay. […] Once an entire plate was loaded with fish, the appropriate incubation solution was added. […] Following incubation in all experiments, the choice testing plate was transported to a dual solid-state heat/cool plate (AHP-1200° C. P; Teca) and centered such that half of each arena was positioned over each side of the heat/cool plate. […] Locomotor behavior was recorded using a Canon high-definition video camcorder suspended at a fixed position above the choice testing plate. Each trial was four minutes in duration.
For single-incubation assays (e.g. testing single chemicals), larval zebrafish were caught in 100 μL E2 media and 100 μL of the control (2% DMSO) or test chemical at 2× concentration was added to each well to achieve the final desired concentration. […] The final DMSO concentration in all solutions was 1%.

[1] = test system: neuronal activity marker phosphorylated-ERK (pERK); assay: Whole brain activity profiling, pERK/tERK immunolabeling and MAP-mapping; type: in vivo, Zebrafish (Danio rerio)
Protocol: To investigate how AS1 might alter central nervous system activity in the presence of nociceptive stimuli, whole brain activity profiling with the neuronal activity marker phosphorylated-ERK (pERK) was performed. Briefly, 6 dpf larval zebrafish were exposed to noxious heat (37.5° C.) or rearing temperature (28.5° C.) in the presence of vehicle or AS1 (either 2.5 or 5 μM) for 15 minutes. Immunolabeling was then performed to detect both total ERK (tERK) and phosphorylated ERK (pERK) (FIG. 8). Volumetric z-stacks of the entire brain of each fish were taken upon a confocal microscope, registered to a reference brain, and smoothed using an ImageJ script. […] Brains from each experimental condition (AS1+28.5° C., Vehicle+37.5° C., and AS1+37.5° C.) with Vehicle+28.5° C. were initially compared to determine how activity under these experimental conditions differed from the baseline state, then the total change in signal in each brain region were subtracted for AS1+28.5° C. and Vehicle+37.5° C. treated fish from AS1+37.5° C. treated fish. This was done to look for brain regions specifically activated in the presence of the noxious stimulus and AS1, reasoning that these areas would drive attraction to noxious stimuli.
pERK Immunolabeling. […]

[2] = test system: T1, 5-HT2a serotonin receptor (Homo sapiens); assay: PDSP radioligand binding assay; details: PDSP screen
T1 construct: Psychoactive Drug Screening Program (PDSP)
T1 sequence (P41595 whole entry): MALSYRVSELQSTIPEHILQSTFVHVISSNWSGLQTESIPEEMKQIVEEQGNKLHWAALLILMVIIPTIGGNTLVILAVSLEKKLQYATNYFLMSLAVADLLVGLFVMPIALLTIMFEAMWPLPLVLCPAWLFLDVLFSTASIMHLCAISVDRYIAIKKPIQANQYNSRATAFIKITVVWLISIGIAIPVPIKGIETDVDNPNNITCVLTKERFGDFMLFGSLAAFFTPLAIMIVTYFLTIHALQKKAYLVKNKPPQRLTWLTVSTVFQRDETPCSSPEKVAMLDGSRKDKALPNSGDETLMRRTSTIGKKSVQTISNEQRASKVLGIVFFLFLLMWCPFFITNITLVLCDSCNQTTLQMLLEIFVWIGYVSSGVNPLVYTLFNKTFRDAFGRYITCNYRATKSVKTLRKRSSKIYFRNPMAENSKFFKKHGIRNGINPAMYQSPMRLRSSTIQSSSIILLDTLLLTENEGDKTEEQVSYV
Protocol: (§1) To further seek out the molecular target(s) of AS1, the resources of the Psychoactive Drug Screening Program (PDSP) (Besnard et al., Nature. 2012; 492:215-220) were utilized. […] While not being limited to mechanism or theory, to verify whether these receptors were involved in mediating the effects of AS1, the thermal preference assay following incubation in drugs that specifically acted upon these receptors was employed. […] Nor did treatment with the 5-HT2 s antagonist LY266097 replicate or reverse the effects of AS1 (FIG. 6). Incubation in either the specific sigma-1 receptor agonist (PRE-084) or antagonist (BD1063) similarly yielded no effects (FIG. 6).

sigma-1 receptor = biological target: T2, sigma-1 receptor (Homo sapiens, UniProt Q99720); assay: PDSP radioligand binding assay; details: PDSP screen
T2 construct: Psychoactive Drug Screening Program (PDSP)
T2 sequence (Q99720 whole entry, species assumed): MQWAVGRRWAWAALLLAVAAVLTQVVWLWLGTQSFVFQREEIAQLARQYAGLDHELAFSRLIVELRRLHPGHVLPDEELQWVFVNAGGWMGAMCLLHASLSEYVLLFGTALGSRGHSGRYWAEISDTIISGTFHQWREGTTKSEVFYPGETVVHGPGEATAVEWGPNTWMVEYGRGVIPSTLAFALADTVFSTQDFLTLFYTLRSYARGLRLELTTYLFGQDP
Protocol: as §1

[3] = 28.5 vs 37.5° C., dose-response 0-5 μM

- radioligand binding interaction [2]: potentially weak interactions
- radioligand binding interaction (sigma-1 receptor): potentially weak interactions
Structure (SMILES): CC(C)c1ccc(C(=O)Nc2ccncc2)cc1 [AS1, 4-propan-2-yl-N-pyridin-4-ylbenzamide]
- zone-dependent locomotor activity (swimming velocity) (larval zebrafish; 28.5 vs 37.5° C. zones, compared to vehicle-treated larvae): inverted zone-dependent locomotor activity
- concentration that eliminates preference for either zone (larval zebrafish; [3]): 1.25 µM
- concentrations that induce preference for the 37.5° C. zone (larval zebrafish; [3]): > 2.5 µM
- preference in acute heat aversion (larval zebrafish; 28.5° vs 37.5° C., 5 μM AS1 (highest dose)): evoked strong preference for the nociceptive stimulus
- Reverses 28.5° C. Choice? (larval zebrafish; temperature preference 28.5° C. vs 37.5° C., larval zebrafish): Yes
- share of the top 25 most active regions that are subpallial/dopaminergic populations ([1]; AS1 + noxious heat (37.5° C.)): 64%
- brain regions recruited by AS1 alone ([1]; AS1-treated fish not exposed to noxious heat (28.5° C.)): primarily recruited neuron clusters within the mesencephalon and rhombencephalon
